What all share (format): cell-based
Test [1] deals with Hep3b, Huh7, and JHH7 cells co-cultured with macrophages. The test can be described thus: Macrophage costimulation/antigen presentation after co-culture with treated liver tumor cells. The following applies: macrophages harvested 4 days after co-culture; normalized to Paclitaxel-treated tumor cells. As to the method: Liver tumor lines Hep3b, Huh7, and JHH7 cells were treated with MMAE, Tubulysin M, vincristine, and Paclitaxel for 24 hours and analyzed for ATP secretion. […] Cells were washed and harvested, and subsequently co-cultured with enriched macrophages prepared as above. Macrophages were harvested 4 days after co-culture and assayed for immune activation by flow cytometry. Levels of costimulation (as measured by CD86 expression, JHH7) and antigen-presentation (as measured by frequency of MHCII-expressing cells, Hep3b, Huh7, and JHH7) were quantified and normalized to macrophages that were co-cultured with […]. […] Supernatant from the co-culture of macrophages and dying liver tumor cells was harvested 24 hours later and assayed for levels of cytokine and chemokine production by ELISA and normalized to macrophages that were co-cultured with untreated tumor cells.

Test [2] has as its system BxPC3 and HPAFII (pancreas) cells co-cultured with macrophages. The test can be described thus: Macrophage antigen presentation after co-culture with treated pancreas tumor cells. As to conditions: BxPC3 and HPAFII treated 24 hours; macrophages harvested 4 days after co-culture. On the procedure: Macrophages were enriched from PBMCs from 2 healthy donors by adhering PBMCs to cell culture-grade plastic. Non-adherent cells were removed 24 hours later, leaving a population of cells enriched for macrophages.
BxPC3 and HPAFII (pancreas) cells were treated with MMAE, vincristine, and Paclitaxel for 24 hours. Cells were washed and harvested, and subsequently co-cultured with the enriched macrophages prepared above. Macrophages were harvested 4 days after co-culture and assayed for immune activation by flow cytometry. Level of antigen-presentation (as measured by frequency of MHCII-expressing cells) was quantified and normalized to macrophages that were co-cultured with untreated tumor cells.

For test [3], the system named is Calu-1, HT1080 and SK-MES-1 cells co-cultured with macrophages. The test can be described thus: Macrophage costimulation/antigen presentation after co-culture with treated Calu-1, HT1080 and SK-MES-1 cells. The following applies: normalized to untreated. On the procedure: Additional cell lines [Calu-1 (lung), HT1080 (fibrosarcoma) and SK-MES-1 […]] were tested for levels of antigen presentation after co culture with macrophages as above. Levels of costimulation (as measured by frequency of CD86-expressing macrophages, Calu-1) or antigen-presentation (as measured by frequency of MHCII-expressing macrophages, HT1080 and SK-MES-1) were quantified and normalized to macrophages that were co-cultured with untreated tumor cells. […] Calu-1, HT-1080, and SK-MES-1 cells were treated with an MMAE-containing ADC (anti-p97-MMAE), vincristine, or paclitaxel for 24 hours and analyzed for HMGB1 release by ELISA.

A further test has as its system U-266 cells. Put plainly: Cell surface ICD markers (HSP70, calreticulin) on AnnexinV negative U-266 cells. The following applies: 48 hours, MMAE 492 nM, SGN-CD48A 10 ng/ml. On the procedure:
U-266 cells were treated for 48 hours with free MMAE (492 nM), an MMAE-containing ADC (SGN-CD48A, 10 ng/ml), and a non-binding MMAE-ADC (10 ng/ml) for 48 hours. Cells were harvested, washed in flow buffer, and subsequently stained for both AnnexinV, a marker for apoptosis, and HSP70. Cells were also stained with both AnnexinV and calreticulin. In both conditions, cells that were AnnexinV negative were selected and the percent population that was positive for HSP70 or calreticulin were determined.

Test [4] has as its system HeLa cervical cancer cells. The test can be described thus: Western blot analysis of ER stress in HeLa cells. The following applies: 1000 nM or 100 nM, 16 hours. As to the method: HeLa cervical cancer cells were treated with 1000 nM or 100 nM MMAE, Vincristine, or Paclitaxel for 16 hours and harvested for western blot analysis.
Background: A western blot detects proteins with antibodies after separation by electrophoresis.

Non-standard residues stand in square brackets, D forms with d. Residues, ends and D or L forms follow the SMILES beside them. *: point of attachment. Dolaproine = CO[C@@H]([C@@H]1CCCN1)[C@@H](C)C(=O)O; Dil = CC[C@H](C)[C@H](NC)[C@@H](CC(=O)O)OC; X1 = C[C@@H](N*)[C@@H](O)c1ccccc1; NMeV = CN[C@H](C(=O)O)C(C)C

As to `CC[C@H](C)[C@@H]([C@@H](CC(=O)N1CCC[C@H]1[C@H](OC)[C@@H](C)C(=O)N[C@H](C)[C@@H](O)c1ccccc1)OC)N(C)C(=O)[C@@H](NC(=O)[C@@H](NC)C(C)C)C(C)C` [MMAE, monomethyl auristatin E] (H-[NMeV]V[Dil][Dolaproine]-X1), the “Immune-activation (CD86 expression, JHH7; MHCII-expressing cells, Hep3b, Huh7, JHH7)” value in test [1] is “increase in immune-activation in 3/3 tumor cell lines that was more robust than Paclitaxel”. In addition, the “Antigen-presentation (frequency of MHCII-expressing cells)” value in test [2] was “increase in antigen-presentation in 1/2 tumor cell lines”. Further, the “Immune activation (CD86-expressing macrophages, Calu-1; MHCII-expressing macrophages, HT1080 and SK-MES-1)” value in test [3] is listed as “increase in immune activation in 3/3 tumor cell lines that was more robust than treatment with Paclitaxel”. Also, in the test with U-266 cells, the “Percentage of ICD markers (HSP70, calreticulin) on the cell surface of AnnexinV negative cells” value was “increase in the percentage of ICD markers”. Moreover, in test [4], the “ER stress responses (phosphorylation of IRE1)” value was “activated ER stress responses” and the “Severe ER stress response (phosphorylation of JNK)” value is “more severe ER stress response that was sustained with decreasing doses”.

Source of the values: patent US20230110128A1, “USE OF ANTIBODY DRUG CONJUGATES COMPRISING TUBULIN DISRUPTING AGENTS TO TREAT SOLID TUMOR” (Seagen Inc., priority 2018, published 2023).
